Here are results for 17 compounds from patent US10800770B1, “Chroman derivatives having estrogen receptor degradation activity and uses thereof” (ACCUTAR BIOTECHNOLOGY INC., priority 2019, dated 2020).

SMILES strings stand for the structures.

The target of the assay is T1, ERα (Homo sapiens, UniProt P03372).
T1 construct: endogenous in cells; host or cells: T47D
T1 sequence (P03372 1-595): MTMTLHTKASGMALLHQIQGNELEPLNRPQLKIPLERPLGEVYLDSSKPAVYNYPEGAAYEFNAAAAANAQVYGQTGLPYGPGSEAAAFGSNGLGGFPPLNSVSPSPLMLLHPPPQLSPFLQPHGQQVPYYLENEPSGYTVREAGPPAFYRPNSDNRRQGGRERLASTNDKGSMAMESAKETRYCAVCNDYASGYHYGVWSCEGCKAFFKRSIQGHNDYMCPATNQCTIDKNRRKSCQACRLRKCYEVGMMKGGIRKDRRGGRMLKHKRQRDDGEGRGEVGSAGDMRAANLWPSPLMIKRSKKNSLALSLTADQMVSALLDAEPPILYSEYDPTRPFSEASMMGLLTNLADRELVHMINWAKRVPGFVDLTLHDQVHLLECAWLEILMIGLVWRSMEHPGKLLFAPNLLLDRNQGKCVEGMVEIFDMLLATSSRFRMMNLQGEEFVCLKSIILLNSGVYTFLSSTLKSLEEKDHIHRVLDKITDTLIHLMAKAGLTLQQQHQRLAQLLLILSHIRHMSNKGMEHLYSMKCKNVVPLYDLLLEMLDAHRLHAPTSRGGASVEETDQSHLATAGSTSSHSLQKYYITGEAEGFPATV
Briefly: ERα degradative activity in T47D cells (Western blot, 6 hours after administration). In kind it is cell-based. The settings on record: T47D cell line, ERα degradation. On the procedure: T47D cells were plated in 24-well plates at 1.5×10^5 cells/well in the RPMI growth medium containing 10% FBS and 1× Penicillin Streptomycin. MCF7 cells were plated in 24-well plates at 1.5×10^5 cells/well in the DMEM growth medium containing 10% FBS and 1× Penicillin Streptomycin. CAMA1 cells were plated in 24-well plates at 2×10^5 cells/well in the RPMI growth medium containing 20% FBS and 1× Penicillin Streptomycin. They were then incubated at 37° C. overnight. The following day, the test compound was administered to the cells by using 1000× compound stock solution prepared in DMSO at various concentrations. After administration of the compound, the cells were then incubated at 37° C. for 6 hours.
Upon completion, the cells were washed with PBS and protein was collected in Laemmli sample buffer (1×; VWR International). Proteins in cell lysate were separated by SDS-PAGE and transferred to Odyssey nitrocellulose membranes (Licor) with Iblot® dry blotting transfer system (ThermoFisher). Nonspecific binding was blocked by incubating membranes with Intercept Blocking Buffer (Licor) for 1 hour at room temperature with gentle shaking. The membranes were then incubated overnight at 4° C. with Primary antibodies rabbit anti-ER (Cell Signaling, 8644) and mouse anti-GAPDH (1:5,000, Santa Cruz Biotechnology, sc-47724) diluted in Intercept Blocking Buffer containing 0.1% Tween 20. After washing 3 times with TBS-T, the membranes were incubated with IRDye® 800CW goat anti-mouse IgG (1:20,000, Licor) or IRDye® 800CW goat anti-rabbit IgG (1:20,000, Licor) for 1 hour. After TBS-T washes, membranes were rinsed in TBS and scanned on Odyssey® CLx Imaging System (Licor). The bands were quantified using Image Studio™ Software (Licor).
On the technique in general: A western blot detects proteins with antibodies after separation by electrophoresis.
By DC50 is commonly meant the concentration at which degradation of the target reaches its halfway point. Read a high DC50 as a less potent degrader. In the case of `O=C1CC[C@H](N2Cc3cc(N4CCN(CC5CCN(c6ccc(C7c8ccc(O)cc8OC[C@@H]7c7ccccc7)cc6)CC5)CC4)ccc3C2=O)C(=O)N1` (relative stereo) [Compound 32, cis-(S)-3-(5-(4-((1-(4-(7-hydroxy-3-phenylchroman-4-yl)phenyl)piperidin-4-yl)methyl)piperazin-1-yl)-1-oxoisoindolin-2-yl)piperidine-2,6-dione], half-maximal degradation (DC50) was put at 2.4 nM. This counts as single-digit nanomolar.
Take `Cc1cccc([C@H]2COc3cc(O)ccc3C2c2ccc(N3CCC(CN4CCN(c5ccc6c(c5)CN([C@H]5CCC(=O)NC5=O)C6=O)CC4)CC3)c(F)c2)c1` (relative stereo) [Compound 52, cis-(S)-3-(5-(4-((1-(2-fluoro-4-(7-hydroxy-3-(m-tolyl)chroman-4-yl)phenyl)piperidin-4-yl)methyl)piperazin-1-yl)-1-oxoisoindolin-2-yl)piperidine-2,6-dione]: it took 5.6 nM to reach half-maximal degradation (DC50). Against the preceding compound, the DC50 is about 2.3-fold higher.
The result for `COc1cccc([C@H]2COc3cc(O)ccc3C2c2ccc(N3CCC(CN4CCN(c5ccc6c(c5)CN([C@H]5CCC(=O)NC5=O)C6=O)CC4)CC3)cc2)c1` (relative stereo) [Compound 56, cis-(S)-3-(5-(4-((1-(4-(7-hydroxy-3-(3-methoxy-phenyl)chroman-4-yl)phenyl)piperidin-4-yl)methyl)piperazin-1-yl)-1-oxoisoindolin-2-yl)piperidine-2,6-dione] reads 1.7 nM; that for `COc1cc([C@H]2COc3cc(O)ccc3[C@H]2c2ccc(N3CCC(CN4CCN(c5ccc6c(c5)CN([C@H]5CCC(=O)NC5=O)C6=O)CC4)CC3)cc2)ccc1F` (relative stereo) [Compound 63, cis-(S)-3-(5-(4-((1-(4-(3-(4-fluoro-3-methoxyphenyl)-7-hydroxychroman-4-yl)phenyl)piperidin-4-yl)methyl)piperazin-1-yl)-1-oxoisoindolin-2-yl)piperidine-2,6-dione], 2.1 nM; that for `COc1cccc([C@H]2COc3cc(O)ccc3[C@H]2c2ccc(N3CCC(CN4CCN(c5cc6c(cc5F)C(=O)N([C@H]5CCC(=O)NC5=O)C6)CC4)CC3)cc2)c1` (relative stereo) [Compound 74, cis-(S)-3-(6-fluoro-5-(4-((1-(4-(7-hydroxy-3-(3-methoxy-phenyl)chroman-4-yl)phenyl)piperidin-4-yl)methyl)piperazin-1-yl)-1-oxoisoindolin-2-yl)piperidine-2,6-dione], 7.3 nM.
Under `O=C1CC[C@H](N2Cc3cc(N4CCN(CC5CCN(c6ccc([C@@H]7c8ccc(O)cc8OCC7c7ccc(F)c(F)c7)cc6F)CC5)CC4)ccc3C2=O)C(=O)N1` (relative stereo) [Compound 84, cis-(S)-3-(5-(4-((1-(4-(3-(3,4-difluorophenyl)-7-hydroxychroman-4-yl)-2-fluoro-phenyl)piperidin-4-yl)methyl)piperazin-1-yl)-1-oxoisoindolin-2-yl)piperidine-2,6-dione] stands 9.3 nM; under `O=C1CC[C@H](N2Cc3cc(N4CCN(CC5CCN(c6ccc([C@@H]7c8ccc(O)cc8OCC7c7ccccc7)cc6F)CC5)CC4)ccc3C2=O)C(=O)N1` (relative stereo) [Compound 85, cis-(S)-3-(5-(4-((1-(2-fluoro-4-(7-hydroxy-3-phenylchroman-4-yl)phenyl)piperidin-4-yl)methyl)piperazin-1-yl)-1-oxoisoindolin-2-yl)piperidine-2,6-dione], 3 nM.
The result for `COc1ccc(C2COc3cc(O)ccc3[C@H]2c2ccc(N3CCC(CN4CCN(c5ccc6c(c5)CN([C@H]5CCC(=O)NC5=O)C6=O)CC4)CC3)cc2)cc1` (relative stereo) [Compound 89, cis-(S)-3-(5-(4-((1-(4-(7-hydroxy-3-(4-methoxy-phenyl)chroman-4-yl)phenyl)piperidin-4-yl)methyl)piperazin-1-yl)-1-oxoisoindolin-2-yl)piperidine-2,6-dione] reads 0.7 nM; that for `COc1ccc(C2COc3cc(O)ccc3[C@H]2c2ccc(N3CCC(CN4CCN(c5cc6c(cc5F)C(=O)N([C@H]5CCC(=O)NC5=O)C6)CC4)CC3)cc2)cc1` (relative stereo) [Compound 90, cis-(S)-3-(6-fluoro-5-(4-((1-(4-(7-hydroxy-3-(4-methoxy-phenyl)chroman-4-yl)phenyl)piperidin-4-yl)methyl)piperazin-1-yl)-1-oxoisoindolin-2-yl)piperidine-2,6-dione], 9.6 nM.
For the compound `O=C1CCC(N2C(=O)c3ccc(N4CCN(CC5CCN(c6ccc(C7c8ccc(O)cc8OC[C@@H]7c7ccccc7)cc6)CC5)CC4)cc3C2=O)C(=O)N1` (stereo in doubt) [Compound 36, cis-2-(2,6-dioxopiperidin-3-yl)-5-(4-((1-(4-(7-hydroxy-3-phenylchroman-4-yl)phenyl)piperidin-4-yl)methyl)piperazin-1-yl)isoindoline-1,3-dione], the DC50 is > 10 nM.
In turn, `O=C1CC[C@H](N2C(=O)c3ccc(N4CCN(CC5CCN(c6ccc([C@@H]7c8ccc(O)cc8OCC7c7ccccc7)cc6F)CC5)CC4)cc3C2=O)C(=O)N1` (stereo in doubt) [Compound 87, cis-2-(2,6-dioxo-piperidin-3-yl)-5-(4-((1-(2-fluoro-4-(7-hydroxy-3-phenylchroman-4-yl)phenyl)piperidin-4-yl)methyl)piperazin-1-yl)isoindoline-1,3-dione] had a 50% degradation concentration (DC50) of 12.6 nM.
Consider `O=C1CC[C@H](N2Cc3cc(N4CCN(CC5CCN(c6ccc([C@@H]7c8ccc(O)cc8OC[C@@H]7c7ccccc7)cc6)CC5)CC4)ccc3C2=O)C(=O)N1` [Compound 33, (S)-3-(5-(4-((1-(4-((3S,4R)-7-hydroxy-3-phenylchroman-4-yl)phenyl)piperidin-4-yl)methyl)piperazin-1-yl)-1-oxoisoindolin-2-yl)piperidine-2,6-dione], for which the DC50 was 0.3 nM.
Turning to `O=C1CC[C@H](N2Cc3cc(N4CCN(CC5CCN(c6ccc([C@H]7c8ccc(O)cc8OC[C@H]7c7ccccc7)cc6)CC5)CC4)ccc3C2=O)C(=O)N1` [Compound 34, (S)-3-(5-(4-((1-(4-((3R,4S)-7-hydroxy-3-phenylchroman-4-yl)phenyl)piperidin-4-yl)methyl)piperazin-1-yl)-1-oxoisoindolin-2-yl)piperidine-2,6-dione], the DC50 is > 100 nM.
`O=C1CC[C@H](N2Cc3cc(N4CCN(CC5CCN(c6ccc([C@@H]7c8ccc(O)cc8OC[C@@H]7c7ccccc7)cc6F)CC5)CC4)c(F)cc3C2=O)C(=O)N1` [Compound 41, (S)-3-(6-fluoro-5-(4-((1-(2-fluoro-4-((3S,4R)-7-hydroxy-3-phenylchroman-4-yl)phenyl)piperidin-4-yl)methyl)piperazin-1-yl)-1-oxoisoindolin-2-yl)piperidine-2,6-dione] gave a DC50 of 4 nM. This lies in the single-digit nanomolar range.
The compound `O=C1CC[C@H](N2Cc3cc(N4CCN(CC5CCN(c6ccc([C@@H]7c8ccc(O)cc8OC[C@@H]7c7ccccc7)cc6)CC5)CC4)c(F)cc3C2=O)C(=O)N1` [Compound 42, (S)-3-(6-fluoro-5-(4-((1-(4-((3S,4R)-7-hydroxy-3-phenylchroman-4-yl)phenyl)piperidin-4-yl)methyl)piperazin-1-yl)-1-oxoisoindolin-2-yl)piperidine-2,6-dione] displayed a DC50 of 1.1 nM.
As to `O=C1CC[C@H](N2Cc3cc(N4CCN(CC5CCN(c6ccc([C@H]7c8ccc(O)cc8OC[C@H]7c7ccccc7)cc6F)CC5)CC4)ccc3C2=O)C(=O)N1` [Compound 45, (S)-3-(5-(4-((1-(2-fluoro-4-((3R,4S)-7-hydroxy-3-phenylchroman-4-yl)phenyl)piperidin-4-yl)methyl)piperazin-1-yl)-1-oxoisoindolin-2-yl)piperidine-2,6-dione], the DC50 is > 100 nM.
In the case of `Cc1cc([C@H]2COc3cc(O)ccc3[C@H]2c2ccc(N3CCC(CN4CCN(c5ccc6c(c5)CN([C@H]5CCC(=O)NC5=O)C6=O)CC4)CC3)c(F)c2)ccc1F` [Compound 60, cis-(S)-3-(5-(4-((1-(2-fluoro-4-(3-(4-fluoro-3-methylphenyl)-7-hydroxychroman-4-yl)phenyl)piperidin-4-yl)methyl)piperazin-1-yl)-1-oxoisoindolin-2-yl)piperidine-2,6-dione], the DC50 was 6.5 nM.
